Results published in patent publication US20140072629A1, “BIOLOGIC MATRICES COMPRISING ANTI-INFECTIVE, METHODS AND COMPOSITIONS RELATED THERETO” (MUSCULOSKELETAL TRANSPLANT FOUNDATION, priority 2008, published 2014).
Like-named read-outs stand apart in the source and are kept apart here.

Legend:
[1] = cited from earlier work
[2] = Solubility / saturation point of Triclosan in alcohol and water; assay type: physicochemical
Excerpt: In particular embodiments, an alcohol solution comprising triclosan is delivered to a hydrated acellular biologic matrix, e.g., a biologic matrix treated with a 40% SDA solution. In other embodiments, the matrix is hydrated with e.g., water, saline solution, and the like. Without being bound to theory, it is thought that the triclosan will partially separate from the alcohol phase due to the triclosan's great differential solubility (alcohol soluble and water insoluble) and deposit as an undissolved agent on the surface of and within the biologic tissue. Therefore, after implantation of the triclosan-treated biologic tissue into a subject, the triclosan will slowly exude or leach off the biologic tissue and out of the alcohol layer directly into the wound zone where bacteria may be collecting. Moreover, some of the triclosan may be held by the insoluble water phase and assist in this slow release. In this regard, where the soluble form of triclosan in alcohol would typically be active right away and dissipate within 8-12 hours in a transplant subject, such as a human abdominal hernia patient, it is thought that the precipitated triclosan in a transplanted treated acellular matrix of the subject invention will reside longer at the wound site, e.g., up to about 24-48 hours after transplantation, thereby increasing the effective amount of anti-infective available at the wound site. […]

saturation point ([2]; 25% alcohol): 600 ppm
saturation point ([2]; 30% alcohol): 1700 ppm
Compound: Oc1cc(Cl)ccc1Oc1ccc(Cl)cc1Cl [Triclosan, 2,4,4′-trichloro-2′-hydroxy-diphenyl-ether]
solubility, in words ([1]; in alcohol): very soluble
solubility, in words ([1]; in water): very insoluble
